# Starred links: 1 amine or outer side, 2 acyl side, 3 side chain; linkers in the order of their positions; H or OH if unused. Positions of bridges follow the written chain, without caps; N, C: chain ends. Non-standard residues stand in square brackets, D forms with d. Residues, ends and D or L forms follow the SMILES beside them. *: point of attachment. X1 = CC1CC(C)(C)Nc2c1cc1c(c2S(=O)(=O)O)Oc2c(S(=O)(=O)O)c3c(cc2=C1c1c(Cl)c(SCC(=O)*)c(Cl)c(Cl)c1C(=O)O)C(C)CC(C)(C)N=3; X2 = N=C(CCCSC1CC(=O)N(CCCCCN[*:1])C1=O)NCC(=O)[*:2]
# What was measured:
# [1] = tested on: intact mouse ventricular myocytes; format: cell-based; conditions: for speed of penetration into living isolated cardiomyocytes: conclusion, native toxin judged by [Ca2+]i transients, derivative by fluorescence
# Method: To visualize the cell-penetrating properties of Alexa-IpTxa in intact cells, ventricular cardiomyocytes were enzymatically isolated and incubated with 5 μM Alexa-IpTxa and Alexa 488-Wheat Germ Agglutinin (10 μg/mL) for 30 min at room temperature (see Experimental Methods). The distribution of Alexa-546-IpTxa (red fluorescence) and WAG-Alexa-488 (green fluorescence) were monitored in living, unfixed cardiac myocytes.
# We next sought to establish a time-course for the translocation of Alexa-IpTxa across the plasma membrane of intact cardiomyocytes. […] Clear intracellular localization of fluorescence is seen only with Alexa-IpTxa, as early as 10 min after incubation (panel D), but more intensely after 20 min incubation (panel F). In order to refine the time-course of Alexa-IpTxa penetration into cardiomyocytes, we continuously monitored the evolution of fluorescence in 3 regions of interest (ROI) corresponding to the plasma membrane and adjacent cytosol (ROI-1), the bulk cytosol (ROI-2), and the nucleus (ROI-3). A fourth ROI (not shown) was defined to monitor changes in fluorescence of the bath solution. Animations of IpTxa translocation into cells are available online as supplementary data (URL: http://www.mdpi.com/1424-8247/3/4/1093/S1).
# Isolated cardiac myocytes were incubated with Alexa-546-IpTxa (5 μM) with or without WGA-Alexa 488 (10 μg/mL) for 30 min in the dark. Images were acquired with a BioRad MR-1 confocal microscope coupled to a Nikon Disphot microscope and an X60 oil immersion objective using the Lasersharp 2000 software. Confocal images are 0.25 μm sections. All experiments were performed at room temperature.
# Ventricular myocytes were imaged with a Zeiss META 5 confocal microscope equipped with laser scanning. Three regions of interest were delineated corresponding to the plasma membrane (ROI-1), […]. Changes in fluorescence intensity in these regions were monitored and analyzed. Alexa-546-IpTxa fluorescence was excited with the 488 nm line of an argon laser, and emitted light was filtered by a LP 585 filter. Alexa-546-IpTxa was perfused at a concentration of 1 μM. Scans were taken every 3 seconds for a total of 351 seconds. After the time series, perfusion was turned off and the cell remained in the bath for 30 minutes. Scans were taken at 9 minutes and 30 minutes.
# [2] = tested on: intact mouse ventricular cardiomyocytes; assay: Ca2+ imaging of field-stimulated ventricular myocytes perfused with toxin; format: cell-based
# Method: IpTxa’s ability to induce subconducting states in single channels and to enhance binding of [^3H]ryanodine to SR vesicles distinguish it as a RyR agonist. […] Ventricular cardiomyocytes were enzymatically digested, loaded with the Ca^2+ indicator Fluo-3, and placed into the perfusion chamber of a Zeiss confocal microscope (see Experimental Methods). Cells were field-stimulated under Normal Tyrode (NT) solution, and Ca^2+ transients were recorded in line-scan mode (control). Perfusion was then changed to NT + IpTxa (in the range of 100 nM-30 µM), and transients were recorded in the presence of toxin (+IpTxa). We hypothesized that if IpTxa penetrates cardiomyocytes to reach its intracellular target, it would alter the shape of [Ca^2+]i transients elicited with field-stimulation. As expected, changes in [Ca^2+]i transients were evident within seconds of perfusion with the toxin. […] For this experiment, cells were paced at 0.5 Hz under NT solution (see Experimental Methods). Cells were scanned first without IpTxa (control transients, Figure 1A), and then IpTxa was perfused and a second scan was taken immediately afterward (Figure 1B).
# Mouse ventricular myocytes were isolated by collagenase digestion of perfused mouse hearts using the method of Mitra and Morad with modification addressed by Wolska and Solaro [23]. Mice were heparinized and anesthetized […] before removal and hanging of the heart. Cells were suspended in Tyrode solution ((mM) 130 NaCl, 5.4 KCl, 0.4 NaH2PO4, 0.5 MgCl2, 25 HEPES, 22 glucose, 0.01 μg/mL insulin, pH7.4 with NaOH) and kept at room temperature until used within 6 h.
# Changes in cytosolic [Ca^2+] using the Ca^2+-dependent fluorescent dye Fluo-3 AM. Fluo-3 AM was added to ventricular myocytes in Tyrodes solution (final concentration 10 μM) and incubated at room temperature for 30 minutes, after which the cells were washed and resuspended in Tyrodes solution. Fluorescence changes were monitored with a Zeiss META 5 line-scanning confocal microscope. Fluo-3 was excited at 488nm, and emissions were collected at 500-570 nm. Cells were perfused with normal Tyrodes and field-stimulated at 1 Hz. After recording control transients, synthetic, unmodified IpTxa was perfused at concentrations of 10 μM, 1 μM, and 100 nM for 10 seconds. To estimate the calcium load of the sarcoplasmic reticulum, we stopped stimulations and performed a rapid application of 10 mM caffeine to elicit complete Ca^2+ release.
# [3] = tested on: isolated rat ventricular myocytes; conditions: 0.5 mM; followed by steady decline to a new lower steady-state; cited from earlier work
# Method: At lower concentrations (100-300 nM), IpTxa perfusion elicited several discernible stimulatory effects in most cells.
compound,measurement,setting,value
"CC(C)C[C@@H]1NC(=O)[C@H](Cc2c[nH]cn2)NC(=O)[C@@H]2CCCN2C(=O)[C@H](CC(C)C)NC(=O)[C@@H](NC(=O)[C@H](CC(=O)O)NC(=O)CNC(=N)CCCSC2CC(=O)N(CCCCCNC(=O)CSc3c(Cl)c(Cl)c(C(=O)O)c(C4=c5cc6c(c(S(=O)(=O)O)c5Oc5c4cc4c(c5S(=O)(=O)O)NC(C)(C)CC4C)=NC(C)(C)CC6C)c3Cl)C2=O)CSSC[C@@H]2NC(=O)[C@@H]3CSSC[C@@H](C(=O)N[C@@H](CCCNC(=N)N)C(=O)O)NC(=O)[C@H](CCCNC(=N)N)NC(=O)[C@H](CCCCN)NC(=O)[C@H](CCC(=O)O)NC(=O)[C@H](C)NC(=O)[C@H](CC(N)=O)NC(=O)[C@H]([C@@H](C)O)NC(=O)CNC(=O)[C@H](CCCNC(=N)N)NC(=O)[C@H](CCCNC(=N)N)NC(=O)[C@H](CCCCN)NC(=O)[C@H](CSSC[C@H](NC(=O)[C@H](CCCNC(=N)N)NC(=O)[C@H](CCCCN)NC1=O)C(=O)N[C@@H](CCCCN)C(=O)N[C@@H](C)C(=O)N[C@@H](CC(=O)O)C(=O)N[C@@H](CC(N)=O)C(=O)N[C@@H](CC(=O)O)C(=O)N3)NC(=O)[C@H](CCCCN)NC(=O)[C@H](CCCCN)NC(=O)CNC2=O (stereo partly drawn) [Alexa-IpTxa] (X1-[X2]DCLPHLKRCKADNDCCGKKCKRRGTNAEKRCR-OH; disulfide 3-17, 10-21, 16-32; C-terminus assumed)",time at which clear intracellular localization of fluorescence is seen,"[1]; 1 μM perfusion, confocal, more intense at later time",≤ 10 min
same,speed of penetration into living isolated cardiomyocytes,[1],slower (minutes)
"CC1CC(C)(C)Nc2c1cc1c(c2S(=O)(=O)O)Oc2c(S(=O)(=O)O)c3c(cc2=C1c1c(Cl)c(SCC(=O)NCCCCCN2C(=O)C=CC2=O)c(Cl)c(Cl)c1C(=O)O)C(C)CC(C)(C)N=3 (stereo not drawn) [Alexa-maleimide, Alexa-Fluor-546-C5-maleimide, reference compound]",membrane permeability (negative control),[1]; as stated for the fluorophore reagent,membrane-impermeable
"CC(C)C[C@@H]1NC(=O)[C@H](Cc2c[nH]cn2)NC(=O)[C@@H]2CCCN2C(=O)[C@H](CC(C)C)NC(=O)[C@@H](NC(=O)[C@H](CC(=O)O)NC(=O)CN)CSSC[C@@H]2NC(=O)[C@@H]3CSSC[C@@H](C(=O)N[C@@H](CCCNC(=N)N)C(=O)O)NC(=O)[C@H](CCCNC(=N)N)NC(=O)[C@H](CCCCN)NC(=O)[C@H](CCC(=O)O)NC(=O)[C@H](C)NC(=O)[C@H](CC(N)=O)NC(=O)[C@H]([C@@H](C)O)NC(=O)CNC(=O)[C@H](CCCNC(=N)N)NC(=O)[C@H](CCCNC(=N)N)NC(=O)[C@H](CCCCN)NC(=O)[C@H](CSSC[C@H](NC(=O)[C@H](CCCNC(=N)N)NC(=O)[C@H](CCCCN)NC1=O)C(=O)N[C@@H](CCCCN)C(=O)N[C@@H](C)C(=O)N[C@@H](CC(=O)O)C(=O)N[C@@H](CC(N)=O)C(=O)N[C@@H](CC(=O)O)C(=O)N3)NC(=O)[C@H](CCCCN)NC(=O)[C@H](CCCCN)NC(=O)CNC2=O [IpTxa, imperatoxin A] (H-GDCLPHLKRCKADNDCCGKKCKRRGTNAEKRCR-OH; disulfide 3-17, 10-21, 16-32 (inferred); N-terminus and C-terminus assumed)",effect on diastolic [Ca2+]i,"[2]; 100 nM to 3 µM perfused, in some cells",elevated diastolic [Ca^2+]i
same,effect on [Ca2+]i transients at high concentration,"[2]; 30 µM perfused in normal Tyrode, cells paced at 0.5 Hz, Fluo indicator, line-scan confocal, representative of three of four experiments",complete cessation of [Ca^2+]i transients
same,effect on [Ca2+]i transient amplitude at lower concentrations,"[2]; 100-300 nM perfused, followed by gradual diminution to a new, lower steady-state, representative of 12 of 36 experiments",significant increase in the amplitude of the [Ca^2+]i transient
same,lag time of effects on intracellular Ca2+ signaling after perfusion,[2]; perfusion on intact cells,2 to 3 s
same,speed of penetration into living isolated cardiomyocytes,[1],rapid (few seconds)
Cn1c(=O)c2c(ncn2C)n(C)c1=O [caffeine],effect on Ca2+ transient amplitude,[3],brief increase in the amplitude of the Ca^2+ transient

# From PMC2910439, “Imperatoxin A, a Cell-Penetrating Peptide from Scorpion Venom, as a Probe of Ca^2+-Release Channels/Ryanodine Receptors” (Pharmaceuticals, 2010)
